Calls of active or inactive are those of the source. Cut-off read from the data, not from the text of the source, for most assays here: actives have a measured Kd and inactives only a lower limit.
Tests used:
[1] = biological target: RAC-alpha serine/threonine-protein kinase (Homo sapiens, UniProt P31749)
[2] = biological target: RAC-gamma serine/threonine-protein kinase (Homo sapiens, UniProt Q9Y243)
[3] = biological target: Cyclin-dependent kinase 5 (Homo sapiens, UniProt Q00535)
Ephrin type-B receptor 3 = biological target: T1, Ephrin type-B receptor 3 (Homo sapiens, UniProt P54753)
T1 sequence (P54753 whole entry): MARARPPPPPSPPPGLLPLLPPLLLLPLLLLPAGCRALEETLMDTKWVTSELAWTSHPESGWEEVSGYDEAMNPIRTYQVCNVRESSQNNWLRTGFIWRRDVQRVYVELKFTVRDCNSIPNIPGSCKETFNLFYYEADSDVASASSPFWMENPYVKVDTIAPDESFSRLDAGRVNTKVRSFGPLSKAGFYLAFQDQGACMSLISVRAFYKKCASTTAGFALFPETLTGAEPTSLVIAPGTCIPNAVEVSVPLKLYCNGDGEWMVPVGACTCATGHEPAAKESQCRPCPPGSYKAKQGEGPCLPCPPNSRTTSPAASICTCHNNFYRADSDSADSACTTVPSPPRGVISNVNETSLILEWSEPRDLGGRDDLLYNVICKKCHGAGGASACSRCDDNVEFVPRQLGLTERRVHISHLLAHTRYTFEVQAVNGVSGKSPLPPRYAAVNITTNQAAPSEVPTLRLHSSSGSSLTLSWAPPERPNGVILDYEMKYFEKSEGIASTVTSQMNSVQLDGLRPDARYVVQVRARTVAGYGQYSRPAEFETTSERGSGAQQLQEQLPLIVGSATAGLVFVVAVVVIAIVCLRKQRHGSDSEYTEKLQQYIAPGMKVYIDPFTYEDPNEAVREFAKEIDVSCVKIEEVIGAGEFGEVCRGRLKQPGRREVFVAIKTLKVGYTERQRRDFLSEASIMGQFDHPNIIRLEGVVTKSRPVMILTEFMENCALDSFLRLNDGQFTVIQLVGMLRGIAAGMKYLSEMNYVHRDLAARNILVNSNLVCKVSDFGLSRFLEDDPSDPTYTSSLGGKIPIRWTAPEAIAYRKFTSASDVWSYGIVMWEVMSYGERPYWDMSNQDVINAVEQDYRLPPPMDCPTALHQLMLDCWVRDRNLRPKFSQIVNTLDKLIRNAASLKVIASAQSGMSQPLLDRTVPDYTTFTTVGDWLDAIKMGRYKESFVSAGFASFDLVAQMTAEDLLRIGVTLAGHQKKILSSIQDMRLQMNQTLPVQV

[4] = biological target: Mitogen-activated protein kinase kinase kinase 4 (Homo sapiens, UniProt Q9Y6R4)
[5] = biological target: T2, Serine/threonine-protein kinase Nek9 (Homo sapiens, UniProt Q8TD19)
T2 sequence (Q8TD19 whole entry): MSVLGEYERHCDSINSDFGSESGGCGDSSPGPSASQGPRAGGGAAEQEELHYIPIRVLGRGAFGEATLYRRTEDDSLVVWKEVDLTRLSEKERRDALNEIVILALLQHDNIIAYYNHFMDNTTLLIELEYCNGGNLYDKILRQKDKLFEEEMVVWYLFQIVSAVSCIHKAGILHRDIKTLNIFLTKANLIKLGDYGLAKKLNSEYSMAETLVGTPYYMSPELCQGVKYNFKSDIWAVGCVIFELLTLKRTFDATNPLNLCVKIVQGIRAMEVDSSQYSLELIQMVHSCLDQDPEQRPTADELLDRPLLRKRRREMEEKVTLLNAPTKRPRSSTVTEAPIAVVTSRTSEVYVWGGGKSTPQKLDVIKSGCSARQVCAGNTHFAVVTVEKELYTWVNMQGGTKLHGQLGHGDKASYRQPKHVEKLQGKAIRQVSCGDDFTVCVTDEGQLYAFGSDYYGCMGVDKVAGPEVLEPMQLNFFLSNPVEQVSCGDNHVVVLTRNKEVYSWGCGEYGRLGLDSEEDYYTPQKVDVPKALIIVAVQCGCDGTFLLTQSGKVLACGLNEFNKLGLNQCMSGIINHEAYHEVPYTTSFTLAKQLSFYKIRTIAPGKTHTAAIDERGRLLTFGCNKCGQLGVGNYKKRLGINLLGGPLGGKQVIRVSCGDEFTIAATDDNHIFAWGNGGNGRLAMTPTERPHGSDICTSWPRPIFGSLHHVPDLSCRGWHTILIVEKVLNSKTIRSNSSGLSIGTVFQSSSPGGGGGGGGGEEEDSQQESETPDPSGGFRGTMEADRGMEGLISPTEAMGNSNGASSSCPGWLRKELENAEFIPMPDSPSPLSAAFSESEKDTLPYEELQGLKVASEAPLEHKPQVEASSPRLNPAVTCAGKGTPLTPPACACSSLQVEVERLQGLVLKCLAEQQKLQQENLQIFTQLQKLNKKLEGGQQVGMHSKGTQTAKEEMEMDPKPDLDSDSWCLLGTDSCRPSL

[6] = biological target: T3, Serine/threonine-protein kinase D3 (Homo sapiens, UniProt O94806)
T3 sequence (O94806 whole entry): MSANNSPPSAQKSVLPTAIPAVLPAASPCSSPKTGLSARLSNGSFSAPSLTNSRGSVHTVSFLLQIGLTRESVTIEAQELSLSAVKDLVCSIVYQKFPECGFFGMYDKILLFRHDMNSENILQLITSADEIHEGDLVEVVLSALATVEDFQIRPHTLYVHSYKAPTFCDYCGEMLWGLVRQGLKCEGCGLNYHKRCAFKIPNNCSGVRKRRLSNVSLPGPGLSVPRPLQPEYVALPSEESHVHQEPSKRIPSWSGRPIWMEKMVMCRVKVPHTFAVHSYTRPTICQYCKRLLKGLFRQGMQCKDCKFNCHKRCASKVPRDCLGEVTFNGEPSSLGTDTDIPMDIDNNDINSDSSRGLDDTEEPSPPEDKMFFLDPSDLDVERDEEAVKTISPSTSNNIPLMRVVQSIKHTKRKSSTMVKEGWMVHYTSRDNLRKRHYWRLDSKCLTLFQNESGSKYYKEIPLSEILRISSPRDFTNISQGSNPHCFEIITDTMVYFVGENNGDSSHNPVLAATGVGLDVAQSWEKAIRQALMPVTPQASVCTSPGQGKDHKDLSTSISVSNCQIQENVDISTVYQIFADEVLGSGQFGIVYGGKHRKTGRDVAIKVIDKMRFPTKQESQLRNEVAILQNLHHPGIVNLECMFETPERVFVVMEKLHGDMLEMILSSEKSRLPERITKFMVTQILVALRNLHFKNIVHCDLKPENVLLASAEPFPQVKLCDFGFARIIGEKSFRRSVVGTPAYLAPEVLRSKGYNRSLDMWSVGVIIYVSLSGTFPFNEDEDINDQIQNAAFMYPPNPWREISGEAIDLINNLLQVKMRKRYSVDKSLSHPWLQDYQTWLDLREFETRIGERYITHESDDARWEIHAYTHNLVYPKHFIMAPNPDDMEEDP
Note: in the data inactive means no Kd found up to 30 µM.

Sequence of Mitogen-activated protein kinase kinase kinase 4 (Q9Y6R4 whole entry): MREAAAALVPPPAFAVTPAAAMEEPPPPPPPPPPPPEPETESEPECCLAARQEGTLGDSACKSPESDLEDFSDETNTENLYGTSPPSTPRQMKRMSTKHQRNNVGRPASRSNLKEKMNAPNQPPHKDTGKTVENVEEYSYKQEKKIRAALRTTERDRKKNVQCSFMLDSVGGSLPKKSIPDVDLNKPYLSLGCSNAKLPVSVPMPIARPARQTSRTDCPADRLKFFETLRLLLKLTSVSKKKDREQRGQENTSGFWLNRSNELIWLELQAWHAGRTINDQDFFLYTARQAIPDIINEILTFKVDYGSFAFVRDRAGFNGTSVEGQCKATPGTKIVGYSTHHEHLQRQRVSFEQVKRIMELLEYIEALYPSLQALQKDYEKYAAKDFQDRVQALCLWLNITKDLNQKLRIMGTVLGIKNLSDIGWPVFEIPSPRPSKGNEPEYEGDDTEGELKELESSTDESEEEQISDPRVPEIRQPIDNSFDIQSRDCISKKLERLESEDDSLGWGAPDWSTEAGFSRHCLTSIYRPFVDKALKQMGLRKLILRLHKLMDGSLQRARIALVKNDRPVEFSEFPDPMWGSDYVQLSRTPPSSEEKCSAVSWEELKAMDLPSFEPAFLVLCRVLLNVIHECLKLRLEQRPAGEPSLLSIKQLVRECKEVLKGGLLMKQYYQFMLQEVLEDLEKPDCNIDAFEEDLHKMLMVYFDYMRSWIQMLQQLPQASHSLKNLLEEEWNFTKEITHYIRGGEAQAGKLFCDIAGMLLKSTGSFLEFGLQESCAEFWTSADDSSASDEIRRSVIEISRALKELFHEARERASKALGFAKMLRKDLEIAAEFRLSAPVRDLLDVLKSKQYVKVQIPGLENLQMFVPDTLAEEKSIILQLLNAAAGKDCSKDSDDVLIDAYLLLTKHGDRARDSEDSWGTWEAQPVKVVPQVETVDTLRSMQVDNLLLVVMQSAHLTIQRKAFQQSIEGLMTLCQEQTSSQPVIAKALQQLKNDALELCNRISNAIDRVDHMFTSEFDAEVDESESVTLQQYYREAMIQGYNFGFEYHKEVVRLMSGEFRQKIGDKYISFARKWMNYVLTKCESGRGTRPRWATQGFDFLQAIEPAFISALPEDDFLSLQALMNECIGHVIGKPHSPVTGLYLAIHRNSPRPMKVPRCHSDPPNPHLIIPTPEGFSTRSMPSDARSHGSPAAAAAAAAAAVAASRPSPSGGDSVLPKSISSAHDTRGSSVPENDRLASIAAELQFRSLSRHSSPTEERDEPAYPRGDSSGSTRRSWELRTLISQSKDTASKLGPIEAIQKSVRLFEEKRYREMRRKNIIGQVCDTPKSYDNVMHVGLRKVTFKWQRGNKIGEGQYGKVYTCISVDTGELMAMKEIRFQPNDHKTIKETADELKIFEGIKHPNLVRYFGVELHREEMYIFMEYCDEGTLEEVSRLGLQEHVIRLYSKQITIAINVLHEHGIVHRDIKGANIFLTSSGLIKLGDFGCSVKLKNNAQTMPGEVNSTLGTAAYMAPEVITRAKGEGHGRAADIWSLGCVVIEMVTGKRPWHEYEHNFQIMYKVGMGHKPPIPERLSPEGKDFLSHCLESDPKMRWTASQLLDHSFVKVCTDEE
Sequence of RAC-gamma serine/threonine-protein kinase (Q9Y243 whole entry): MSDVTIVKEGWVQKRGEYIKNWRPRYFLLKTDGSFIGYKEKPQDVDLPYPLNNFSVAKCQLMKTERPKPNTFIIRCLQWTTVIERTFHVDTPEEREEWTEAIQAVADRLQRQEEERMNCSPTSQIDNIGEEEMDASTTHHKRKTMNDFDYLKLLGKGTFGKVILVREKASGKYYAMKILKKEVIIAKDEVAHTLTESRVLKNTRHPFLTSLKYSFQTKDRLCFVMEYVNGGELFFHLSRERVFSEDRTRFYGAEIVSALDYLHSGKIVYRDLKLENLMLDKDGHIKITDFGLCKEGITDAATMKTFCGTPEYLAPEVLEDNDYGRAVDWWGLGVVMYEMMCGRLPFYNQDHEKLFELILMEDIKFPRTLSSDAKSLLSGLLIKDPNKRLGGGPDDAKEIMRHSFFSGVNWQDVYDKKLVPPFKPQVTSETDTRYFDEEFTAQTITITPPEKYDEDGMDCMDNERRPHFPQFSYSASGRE
Sequence of RAC-alpha serine/threonine-protein kinase (P31749 whole entry): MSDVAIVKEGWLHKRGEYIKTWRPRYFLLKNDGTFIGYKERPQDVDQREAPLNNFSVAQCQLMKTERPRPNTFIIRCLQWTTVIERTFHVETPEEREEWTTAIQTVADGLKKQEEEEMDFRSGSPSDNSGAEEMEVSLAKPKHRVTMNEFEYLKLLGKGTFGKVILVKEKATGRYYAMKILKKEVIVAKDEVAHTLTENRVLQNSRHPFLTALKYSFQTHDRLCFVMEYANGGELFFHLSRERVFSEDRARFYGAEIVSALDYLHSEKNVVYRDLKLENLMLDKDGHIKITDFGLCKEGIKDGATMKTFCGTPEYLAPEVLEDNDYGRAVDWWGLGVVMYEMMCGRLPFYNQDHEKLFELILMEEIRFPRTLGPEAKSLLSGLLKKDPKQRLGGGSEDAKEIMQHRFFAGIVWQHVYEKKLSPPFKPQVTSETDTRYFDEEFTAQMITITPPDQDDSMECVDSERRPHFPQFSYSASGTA
Sequence of Cyclin-dependent kinase 5 (Q00535 whole entry): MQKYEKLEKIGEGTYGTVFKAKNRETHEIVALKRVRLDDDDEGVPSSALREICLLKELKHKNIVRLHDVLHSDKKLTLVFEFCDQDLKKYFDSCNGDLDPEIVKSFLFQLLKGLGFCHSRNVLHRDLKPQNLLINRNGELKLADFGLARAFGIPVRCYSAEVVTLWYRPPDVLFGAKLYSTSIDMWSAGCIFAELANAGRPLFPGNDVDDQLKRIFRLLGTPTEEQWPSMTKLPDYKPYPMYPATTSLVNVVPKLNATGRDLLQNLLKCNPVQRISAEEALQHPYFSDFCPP

| Kd [1] | Kd [2] | Kd [3] | Kd (Ephrin type-B receptor 3) | Kd [4] | Kd [6] | Structure (SMILES) | Kd [5] |
| --- | --- | --- | --- | --- | --- | --- | --- |
| > 30 µM (inactive) | > 30 µM (inactive) | > 30 µM (inactive) | > 30 µM (inactive) | > 30 µM (inactive) | > 30 µM (inactive) | CC[C@@H]1C(=O)N(C)c2cnc(Nc3ccc(C(=O)N[C@H]4CC[C@H](N5CCN(CC6CC6)CC5)CC4)cc3OC)nc2N1C(C)C [VOLASERTIB] | > 30 µM (inactive) |
| > 30 µM (inactive) | > 30 µM (inactive) | > 30 µM (inactive) | > 30 µM (inactive) | > 30 µM (inactive) | > 30 µM (inactive) | C[C@@H]1CN(Cc2ccc(F)cc2)[C@@H](C)CN1C(=O)c1cc2c(C(=O)C(=O)N(C)C)cn(C)c2cc1Cl [TALMAPIMOD] | > 30 µM (inactive) |
| > 30 µM (inactive) | > 30 µM (inactive) | > 30 µM (inactive) | 5.43 µM (active) | > 30 µM (inactive) | > 30 µM (inactive) | COc1cc2nccc(Oc3ccc(NC(=O)Nc4cc(C)on4)c(Cl)c3)c2cc1OC [TIVOZANIB] | > 30 µM (inactive) |
| > 30 µM (inactive) | > 30 µM (inactive) | > 30 µM (inactive) | > 30 µM (inactive) | > 30 µM (inactive) | > 30 µM (inactive) | CC(C)Nc1cc(-c2c[nH]c(C(=O)N[C@H](CO)c3cccc(Cl)c3)c2)c(Cl)cn1 [ULIXERTINIB] | > 30 µM (inactive) |

The remaining lines, values behind:

| Structure (SMILES) | Kd [1] | Kd [2] | Kd [3] | Kd (Ephrin type-B receptor 3) | Kd [4] | Kd [6] | Kd [5] |
| --- | --- | --- | --- | --- | --- | --- | --- |
| N[C@@H]1CCCN(c2c(/C=C3\SC(=O)NC3=O)cccc2-c2ccccc2)C1 | > 30 µM (inactive) | > 30 µM (inactive) | > 30 µM (inactive) | > 30 µM (inactive) | > 30 µM (inactive) | > 30 µM (inactive) | > 30 µM (inactive) |
| CNC(=O)CN1CCC(Oc2cc3c(Nc4cccc(Cl)c4F)ncnc3cc2OC)CC1 [SAPITINIB] | > 30 µM (inactive) | > 30 µM (inactive) | > 30 µM (inactive) | > 30 µM (inactive) | > 30 µM (inactive) | > 30 µM (inactive) | > 30 µM (inactive) |
| Cc1cc(-c2cc(O)ccc2Cl)cc2nnc(Nc3ccc(OCCN4CCCC4)cc3)nc12 | > 30 µM (inactive) | > 30 µM (inactive) | > 30 µM (inactive) | 0.002 µM (active) | > 30 µM (inactive) | 0.003 µM | > 30 µM (inactive) |
| O=C(c1ccc(F)c(F)c1Nc1ccc(I)cc1F)N1CC(O)([C@@H]2CCCCN2)C1 [COBIMETINIB] | > 30 µM (inactive) | > 30 µM (inactive) | > 30 µM (inactive) | > 30 µM (inactive) | > 30 µM (inactive) | > 30 µM (inactive) | > 30 µM (inactive) |
| CN1CCC(COc2cnc(-c3cccc(Cn4nc(-c5cccc(C#N)c5)ccc4=O)c3)nc2)CC1 [TEPOTINIB] | > 30 µM (inactive) | > 30 µM (inactive) | > 30 µM (inactive) | > 30 µM (inactive) | > 30 µM (inactive) | > 30 µM (inactive) | > 30 µM (inactive) |
| CO[C@H]1C[C@@H]2CC[C@@H](C)[C@@](O)(O2)C(=O)C(=O)N2CCCC[C@H]2C(=O)O[C@H]([C@H](C)C[C@@H]2CC[C@@H](OCCO)[C@H](OC)C2)CC(=O)[C@H](C)/C=C(\C)[C@@H](O)[C@@H](OC)C(=O)[C@H](C)C[C@H](C)/C=C/C=C/C=C/1C [EVEROLIMUS] | > 30 µM (inactive) | > 30 µM (inactive) | > 30 µM (inactive) | > 30 µM (inactive) | > 30 µM (inactive) | > 30 µM (inactive) | > 30 µM (inactive) |
| Cn1cc(-c2ccc(F)c(C(F)(F)F)c2)nc1C1CCN(c2ncnc3[nH]ncc23)CC1 [LY-2584702] | > 30 µM (inactive) | > 30 µM (inactive) | > 30 µM (inactive) | > 30 µM (inactive) | > 30 µM (inactive) | > 30 µM (inactive) | > 30 µM (inactive) |
| CNC(=O)c1ccc(C)c(-n2c(C)cc(OCc3ccc(F)cc3F)c(Br)c2=O)c1 [PH-797804] | > 30 µM (inactive) | > 30 µM (inactive) | > 30 µM (inactive) | > 30 µM (inactive) | > 30 µM (inactive) | > 30 µM (inactive) | > 30 µM (inactive) |

Source: ChEMBL document CHEMBL3991601, “The target landscape of clinical kinase drugs” (Science, 2017)
